Data reported in ChEMBL document CHEMBL3507680, “University of Dundee, Gates Library screen for HepG2 cell viability”.

Test: Human HepG2 cell viability assay in 384 well format
Format: toxicity, cell-based
Parameters: dose 125 nL, time 70.5 hour; cytotoxicity at 70.5 h: concentration not given beside the values
Conditions: HepG2 cells, read-out: Inhibition

| Structure (SMILES) | cytotoxicity at 70.5 h [%] |
| --- | --- |
| O=C(CC1=CSC2=NCCN12)N1CCCC(CCc2cccc(F)c2)C1 (stereo unspecified) | -13.5 |
| CO[C@H]1COCCN(C(=O)c2ccc(F)cc2)C1 | -3.92 |
| c1ccc(OC[C@]23COC[C@H]2CN(Cc2ccoc2)C3)nc1 | -12.9 |
| CCc1nc(C2CCCN(C(=O)NCCOC)C2)no1 (stereo unspecified) | 21.2 |
| O=C(c1[nH]nc2c1CCCC2)N1CCC(OCCN2CCCCC2)C1 (stereo unspecified) | -2.83 |
| CCc1ccccc1OCCN1CC[C@@]2(O)CCNC[C@H]2C1 | -3.34 |
| N#CCCCOc1cccnc1NC(=O)CCC1CCCC1 | -0.625 |
| CCc1nc(C2CCCN2CC(=O)Nc2nnc(C)s2)no1 (stereo unspecified) | -13.4 |
| CC[C@@]1(O)CCN(C(=O)c2ccc(CN3CCCCCC3)cc2)C[C@H]1O | -3.75 |
| COc1ccccc1-c1ncc(CN2CCC3(CCN(C)C3)CC2)cn1 | -8.29 |
| OCCNc1nccc(-c2c[nH]nc2-c2ccco2)n1 | 4.01 |
| CN(Cc1ccccc1F)C(=O)Cn1cc(NC(=O)C(C)(C)C)cn1 | 10.7 |
| CN1C[C@@H](N)C[C@H]1C(=O)N1CCC(Cc2ccc(F)cc2)CC1 | 0.737 |
| COc1cccc(COCC(=O)N2CCCC(c3ccn[nH]3)C2)c1 (stereo unspecified) | 20.5 |
| CN(Cc1cn[nH]c1-c1ccc(F)cc1)C(=O)CCC1CC1 | -13.8 |
| CC(C)CS(=O)(=O)N1C[C@H]2C[C@H](C(=O)N3CCCC3)[C@@H](C1)O2 | 0.165 |
| CC(NC(=O)NCCCN(C)S(C)(=O)=O)c1ccc(C#N)cc1 (stereo unspecified) | -4.16 |
| O=C(NCc1cc[nH]n1)NCC(c1ccco1)N1CCCC1 (stereo unspecified) | -13.5 |
| CCNC(=O)C1CCN(Cc2csc(-c3ccc(C)o3)n2)CC1 | 0.934 |

| Structure (SMILES) | cytotoxicity at 70.5 h [%] |
| --- | --- |
| CCc1ccc(OCCn2cccn2)cc1 | 23.9 |
| CC(C)(O)CN1CCN(C(=O)c2ccc3c(c2)COC3)CC1 | -5.78 |
| CC(=O)N1CCN(C(=O)NCc2ccccc2Cn2cncn2)CC1 | -14.9 |
| Cc1cc(C)n(-c2ccc(CNCc3cccc(C#N)c3)cn2)n1 | -12.6 |
| CNC(=O)C(C)CN(C)C(=O)Nc1cc(F)cc(Br)c1 (stereo unspecified) | 1.41 |
| Cc1noc(C)c1CNC(=O)N1Cc2ccccc2N(C)CC1C (stereo unspecified) | 7.21 |
| CNc1ncc2c(n1)CN(CCc1ccc(Cl)cc1)C2=O | -5.88 |
| Cc1ccc(C)c(OCC(O)CN(C)CC(=O)Nc2cc(C)on2)c1 (stereo unspecified) | 3.48 |
| O=C(NCC1CCOCC1)[C@H]1C[C@@H]2CCN(Cc3ccncc3)C[C@@H]2O1 | -1.08 |
| O=C(c1ccc[nH]1)N1CC2(CCN(c3nccs3)C2)C1 | -3.73 |
| CC(C)C[C@H](N)COc1cccc(F)c1Oc1cccc(Cl)c1 | 26.3 |
| CN(Cc1ccc(Cl)s1)C(=O)CN(C)C1CCCc2ccccc21 (stereo unspecified) | -4.74 |
| COc1c(CNC2CCc3cc(F)ccc32)c(C(C)C)nn1C (stereo unspecified) | 16.8 |
| Cn1cc(N2C(=O)CC[C@@H]3[C@H]2CCN3CCc2ccccc2)cn1 | 16.8 |
| CC(C)N1CCCn2nc(C(=O)NCCc3c[nH]cn3)cc2C1 | 19.8 |
| c1cncc(C(Cn2cnnc2)N2CCOCC2)c1 (stereo unspecified) | 2.14 |
| Cc1ccccc1N1CCN(C(=O)c2cnc(C3CC3)nc2)C(C)C1 (stereo unspecified) | -2.79 |
| CC[C@@H](CO)Nc1cc(-c2cn[nH]c2)ncn1 | 3.42 |
| CCc1nc(C2CCCN2C(=O)c2nccnc2N)no1 (stereo unspecified) | -18.5 |

| Structure (SMILES) | cytotoxicity at 70.5 h [%] |
| --- | --- |
| CCc1ccc(C(CNC(=O)c2c(C)noc2C)N(C)C)cc1 (stereo unspecified) | 5.58 |
| c1ccc(-c2nc(CCNCc3ccncc3)co2)cc1 | -5.13 |
| CC(C)N(CC(N)=O)CC(=O)N(C1=CCCCC1)C1CC1 | 3.33 |
| OC(COc1ccccc1)CN1CCN(c2nccs2)CC1 (stereo unspecified) | 0.888 |
| CCn1c(C2CCCN(Cc3ccnc4ccccc34)C2)nn(C)c1=O (stereo unspecified) | -7.68 |
| Cc1cccc(CN2C[C@@H]3OCCN(S(=O)(=O)N(C)C)[C@@H]3C2)n1 | -6.13 |
| Cc1nonc1CNC(=O)C(C)Oc1ccccc1F (stereo unspecified) | -7.96 |
| Cc1ccccc1CN1C[C@@H]2COC[C@]2(CNC(=O)C2CCC2)C1 | -7.13 |
| Cc1cc(C(=O)N2CCN(Cc3ccco3)C(CCO)C2)cc(=O)[nH]1 (stereo unspecified) | 21.1 |
| CC(C)c1cc(C(=O)NCCN2CCCS2(=O)=O)n[nH]1 | -19.6 |
| CNC(=O)c1ccc(C2CN(C(=O)c3coc(C)n3)CCO2)nc1 (stereo unspecified) | -11.4 |
| Cc1ccccc1OCCN(C)C(=O)NC(C)c1nncn1C (stereo unspecified) | -6.52 |
| Cc1oncc1C(=O)N1CCCc2c(C#N)nn(C)c2C1 | -7.62 |
| CCn1cc(S(=O)(=O)N(C)Cc2c(Br)cnn2CC)c(C)n1 | 1.71 |
| COCCNC(=O)Cn1ccc2cccc(OC)c21 | 8.67 |
| CN(c1ccc(CNc2ccc(Cl)cn2)cc1)S(C)(=O)=O | -4.71 |
| CS(=O)(=O)N1CCC2(CC1)CC(Oc1ccccn1)CO2 (stereo unspecified) | -3.34 |
| CC(=O)N[C@@H]1CN(Cc2ccccc2C#N)C[C@H]1c1ccc(C)cc1 | -21.6 |
